This assay addresses T1, human C3a receptor (C3aR) (Homo sapiens, UniProt Q16581).
T1 construct: expressed in transfected cells
T1 sequence (Q16581 1-482): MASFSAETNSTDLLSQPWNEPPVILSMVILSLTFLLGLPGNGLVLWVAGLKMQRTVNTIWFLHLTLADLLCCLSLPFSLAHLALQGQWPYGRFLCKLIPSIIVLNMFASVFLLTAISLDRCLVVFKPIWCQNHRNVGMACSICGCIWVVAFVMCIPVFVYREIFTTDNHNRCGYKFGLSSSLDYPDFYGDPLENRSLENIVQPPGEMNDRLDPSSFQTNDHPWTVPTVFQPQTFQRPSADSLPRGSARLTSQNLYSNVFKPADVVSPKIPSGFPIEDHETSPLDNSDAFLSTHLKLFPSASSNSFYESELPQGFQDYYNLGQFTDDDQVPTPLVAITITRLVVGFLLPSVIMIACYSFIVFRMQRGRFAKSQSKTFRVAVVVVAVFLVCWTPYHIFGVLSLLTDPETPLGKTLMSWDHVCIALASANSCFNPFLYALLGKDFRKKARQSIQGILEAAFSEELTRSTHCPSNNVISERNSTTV
In words: Inhibition of human [125I]-C3a binding to human C3a receptor (SPA, membranes of HEK293 cells expressing recombinant C3aR). To be noted: 0.1 nM [125I]-C3a, 3 hours at room temperature; Table 1. The protocol: Inhibition of human [^125I]-C3a binding to human C3a receptor
Binding of human [^125I]-C3a to human C3a receptor (C3aR) was done using cell membranes from HEK293 cells stably expressing recombinant C3aR, in a homogeneous scintillation proximity assay (SPA). The C3aR cell membranes were pre-coupled over-night at 4° C. to WGA-PVT SPA beads (Amersham) at a ratio of 10 μg cell membrane to 0.5 mg beads/assay. Assay was performed in 96-well microtiter Optiplates (Packard) by mixing coupled beads and 0.1 nM [^125I]-C3a (2200 Ci/mmol, Perkin Elmer Life Sciences), in a total volume of […] binding buffer (20 mM HEPES, pH 7.4, 125 mM NaCl, 5 mM KCl, 1 mM CaCl2, 1 mM MgCl2, 0.25% BSA, 0.2% CHAPS). Test compounds were diluted in DMSO and were tested for their inhibitory potential in the assay (final concentration≦1% DMSO). Incubation was done for 3 hours at room temperature followed by reading in a TopCount scintillation microplate reader. Non-specific binding was determined by adding 1 μM unlabeled C3a (Calbiochem) to the assay mixture. Calculation of the IC50 was done as above using a nonlinear least square fitting program, with Graphpad Prism.

Counter-ions that a name gives are not always drawn.

As a reminder, the IC50 is the concentration needed to halve the response being measured. Consider `CC(C)c1ccccc1-c1ccccc1Cn1cccc(C(=O)N[C@@H](CCCNC(=N)N)C(=O)O)c1=O` [Compound 28, (2S)-5-carbamimidamido-2-[({1-[(2′-isopropylbiphenyl-2-yl)methyl]-2-oxo-1,2-dihydropyridin-3-yl}carbonyl)amino]pentanoic acid•TFA], for which the concentration for half-maximal inhibition (IC50) was under 50 nM.

As to `CC(C)c1cccc(-c2ccccc2Cn2cccc(C(=O)N[C@@H](CCCNC(=N)N)C(=O)O)c2=O)c1` [Compound 29, (2S)-5-carbamimidamido-2-[({1-[(3′-isopropylbiphenyl-2-yl)methyl]-2-oxo-1,2-dihydropyridin-3-yl}carbonyl)amino]pentanoic acid•TFA], the concentration for half-maximal inhibition (IC50) was under 50 nM.

For `CC(C)c1ccc(-c2ccccc2Cn2cccc(C(=O)N[C@@H](CCCNC(=N)N)C(=O)O)c2=O)cc1` [Compound 30, (2S)-5-carbamimidamido-2-[({1-[(4′-isopropylbiphenyl-2-yl)methyl]-2-oxo-1,2-dihydropyridin-3-yl}carbonyl)amino]pentanoic acid•TFA], the IC50 lay within 50 to 500 nM.

In the case of `N=C(N)NCCC[C@H](NC(=O)c1cccn(Cc2ccccc2-c2ccc(F)cc2)c1=O)C(=O)O` [Compound 31, (2S)-5-carbamimidamido-2-[({1-[(4′-fluorobiphenyl-2-yl)methyl]-2-oxo-1,2-dihydropyridin-3-yl}carbonyl)amino]pentanoic acid•TFA], the IC50 is under 50 nM.

As to `N=C(N)NCCC[C@H](NC(=O)c1cccn(-c2ccc3ccccc3c2)c1=O)C(=O)O` [Compound 32, (2S)-5-carbamimidamido-2-({[1-(2-naphthyl)-2-oxo-1,2-dihydropyridin-3-yl]carbonyl}amino)pentanoic acid•TFA], the IC50 fell in the range of 50 to 500 nM.

Regarding `N=C(N)NCCC[C@H](NC(=O)c1cccn(-c2ccccc2)c1=O)C(=O)O` [Compound 33, (2S)-5-carbamimidamido-2-{[(2-oxo-1-phenyl-1,2-dihydropyridin-3-yl)carbonyl]amino}pentanoic acid•TFA], the IC50 is 500 to 20000 nM.

Consider `N=C(N)NCCC[C@H](NC(=O)c1cccn(-c2ccc(-c3ccccc3)cc2)c1=O)C(=O)O` [Compound 34, (2S)-2-{[(1-biphenyl-4-yl-2-oxo-1,2-dihydropyridin-3-yl)carbonyl]amino}-5-carbamimidamidopentanoic acid•TFA], for which the concentration for half-maximal inhibition (IC50) was 500 to 20000 nM.

As to `Cc1ccc(C(=O)N[C@@H](CCCNC(=N)N)C(=O)O)c(=O)n1Cc1ccccc1` [Compound 35, (2S)-2-{[(1-benzyl-6-methyl-2-oxo-1,2-dihydropyridin-3-yl)carbonyl]amino}-5-carbamimidamidopentanoic acid•TFA], the 50% inhibitory concentration (IC50) lay within 50 to 500 nM.

Consider `N=C(N)NCCC[C@H](NC(=O)c1ccc(-c2ccccc2)n(Cc2ccccc2)c1=O)C(=O)O` [Compound 36, (2S)-2-{[(1-benzyl-2-oxo-6-phenyl-1,2-dihydropyridin-3-yl)carbonyl]amino}-5-carbamimidamidopentanoic acid•TFA], for which the IC50 fell in the range of 500 to 20000 nM.

For the molecule `N=C(N)NCCC[C@H](NC(=O)c1cccn(CC(=O)N(c2ccccc2)c2ccccc2)c1=O)C(=O)O` [Compound 37, (2S)-5-carbamimidamido-2-[({1-[2-(diphenylamino)-2-oxoethyl]-2-oxo-1,2-dihydropyridin-3-yl}carbonyl)amino]pentanoic acid•TFA], the IC50 lay in the range of 50 to 500 nM.

For `N=C(N)NCCC[C@H](NC(=O)c1cccn(Cc2cccc(Cl)c2)c1=O)C(=O)O` [Compound 38, (2S)-5-carbamimidamido-2-({[1-(3-chlorobenzyl)-2-oxo-1,2-dihydropyridin-3-yl]carbonyl}amino)pentanoic acid•TFA], the IC50 is under 50 nM.

On to `N=C(N)NCCC[C@H](NC(=O)c1cccn(Cc2cccc(F)c2)c1=O)C(=O)O` [Compound 39, (2S)-5-carbamimidamido-2-({[1-(3-fluorobenzyl)-2-oxo-1,2-dihydropyridin-3-yl]carbonyl}amino)pentanoic acid•TFA], for which the half-maximal inhibitory concentration (IC50) is under 50 nM.

(Values after patent US20080188528A1, “Modulators of C3a receptor and methods of use thereof” (priority 2006, published 2008).)
